Measurements from the NIST ThermoML archive (doi:10.1021/je400849a).
Numbers after ± are expanded uncertainties.

Tests used:
[1] = 101.33 kPa, Liquid; for mass density: Vibrating tube method
[2] = refractive index (Na D-line) (dimensionless); details: 101.33 kPa, Liquid, Standard Abbe refractometry

CCCCCCCCCCCCOS(=O)(=O)[O-].CCCCn1cc[n+](CCC#N)c1 [1-butyl-3-(2-cyanoethyl)-1H-imidazol-3-ium dodecyl sulfate] gave a viscosity ([1]; 293.15 K) of 13007 ± 2000 mPa·s, a mass density ([1]; 293.15 K) of 1128.9 ± 1.9 kg/m3 and a viscosity ([1]; 298.15 K) of 7875 ± 1100 mPa·s. The mass density ([1]; 298.15 K) was 1123.2 ± 1.8 kg/m3, the viscosity ([1]; 303.15 K) was 4746 ± 580 mPa·s and the mass density ([1]; 303.15 K) was 1119.8 ± 1.8 kg/m3. The viscosity ([1]; 308.15 K) was 2938 ± 320 mPa·s, the mass density ([1]; 308.15 K) was 1116.1 ± 1.8 kg/m3 and the viscosity ([1]; 313.15 K) was 1740 ± 170 mPa·s. For the same compound, the mass density ([1]; 313.15 K) was 1112.2 ± 1.8 kg/m3, the viscosity ([1]; 318.15 K) was 1144 ± 98 mPa·s and the mass density ([1]; 318.15 K) was 1108.9 ± 1.8 kg/m3. It also gave a viscosity ([1]; 323.15 K) of 768 ± 57 mPa·s, a mass density ([1]; 323.15 K) of 1105 ± 1.8 kg/m3 and a viscosity ([1]; 328.15 K) of 485 ± 30 mPa·s. It also gave a mass density ([1]; 328.15 K) of 1101.9 ± 1.8 kg/m3, a viscosity ([1]; 333.15 K) of 338 ± 18 mPa·s and a mass density ([1]; 333.15 K) of 1097.7 ± 1.8 kg/m3. For the same compound, the viscosity ([1]; 338.15 K) was 235 ± 10 mPa·s, the mass density ([1]; 338.15 K) was 1093.6 ± 1.8 kg/m3 and the viscosity ([1]; 343.15 K) was 162 ± 6 mPa·s. For the same compound, the mass density ([1]; 343.15 K) was 1089.7 ± 1.8 kg/m3, the viscosity ([1]; 348.15 K) was 114 ± 3 mPa·s and the mass density ([1]; 348.15 K) was 1086.3 ± 1.7 kg/m3. The viscosity ([1]; 353.15 K) was 76 ± 1 mPa·s, the mass density ([1]; 353.15 K) was 1082.2 ± 1.7 kg/m3 and the refractive index ([2]; 298.15 K) was 1.48791 ± 0.00059. The refractive index ([2]; 303.15 K) was 1.48619 ± 0.00059, the refractive index ([2]; 308.15 K) was 1.48443 ± 0.00059 and the refractive index ([2]; 313.15 K) was 1.48232 ± 0.00059. It also gave a refractive index ([2]; 318.15 K) of 1.48009 ± 0.00059, a refractive index ([2]; 323.15 K) of 1.47842 ± 0.00059 and a refractive index ([2]; 328.15 K) of 1.47695 ± 0.00059. It also gave a refractive index ([2]; 333.15 K) of 1.47487 ± 0.00059.

Compound CCCCn1cc[n+](CCC#N)c1.O=S(=O)([O-])c1ccccc1 [1-butyl-3-(2-cyanoethyl)-1H-imidazolium benzenesulfonate] has a viscosity ([1]; 293.15 K) of 4612 ± 840 mPa·s, a mass density ([1]; 293.15 K) of 1240.3 ± 2.3 kg/m3 and a viscosity ([1]; 298.15 K) of 2752 ± 450 mPa·s. For the same compound, the mass density ([1]; 298.15 K) was 1236.8 ± 2.3 kg/m3, the viscosity ([1]; 303.15 K) was 1806 ± 260 mPa·s and the mass density ([1]; 303.15 K) was 1233.4 ± 2.3 kg/m3. It also gave a viscosity ([1]; 308.15 K) of 1203 ± 160 mPa·s, a mass density ([1]; 308.15 K) of 1230.2 ± 2.3 kg/m3 and a viscosity ([1]; 313.15 K) of 792 ± 89 mPa·s. It also gave a mass density ([1]; 313.15 K) of 1226.3 ± 2.2 kg/m3, a viscosity ([1]; 318.15 K) of 505 ± 48 mPa·s and a mass density ([1]; 318.15 K) of 1223.7 ± 2.2 kg/m3. It also gave a viscosity ([1]; 323.15 K) of 321 ± 25 mPa·s, a mass density ([1]; 323.15 K) of 1220.3 ± 2.2 kg/m3 and a viscosity ([1]; 328.15 K) of 214 ± 13 mPa·s. For the same compound, the mass density ([1]; 328.15 K) was 1217.1 ± 2.2 kg/m3, the viscosity ([1]; 333.15 K) was 152 ± 7 mPa·s and the mass density ([1]; 333.15 K) was 1213.5 ± 2.2 kg/m3. The viscosity ([1]; 338.15 K) was 109 ± 4 mPa·s, the mass density ([1]; 338.15 K) was 1210.1 ± 2.2 kg/m3 and the viscosity ([1]; 343.15 K) was 78 ± 2 mPa·s. It also gave a mass density ([1]; 343.15 K) of 1207.1 ± 2.2 kg/m3, a viscosity ([1]; 348.15 K) of 54 ± 1 mPa·s and a mass density ([1]; 348.15 K) of 1204.4 ± 2.2 kg/m3. The viscosity ([1]; 353.15 K) was 38 ± 1 mPa·s, the mass density ([1]; 353.15 K) was 1201.3 ± 2.2 kg/m3 and the refractive index ([2]; 298.15 K) was 1.53378 ± 0.00061. The refractive index ([2]; 303.15 K) was 1.53237 ± 0.00061, the refractive index ([2]; 308.15 K) was 1.53113 ± 0.00061 and the refractive index ([2]; 313.15 K) was 1.52975 ± 0.00061. It also gave a refractive index ([2]; 318.15 K) of 1.52824 ± 0.00061, a refractive index ([2]; 323.15 K) of 1.52684 ± 0.00061 and a refractive index ([2]; 328.15 K) of 1.52544 ± 0.00061. The refractive index ([2]; 333.15 K) was 1.52403 ± 0.00061.

In the case of CCCCCCCCCCn1cc[n+](CCC#N)c1.O=C([O-])c1cccc(S(=O)(=O)O)c1 [3-(2-cyanoethyl)-1-decylimidazolium 3-sulfobenzoate], the mass density ([1]; 293.15 K) is reported as 1136.6 ± 2.8 kg/m3, the viscosity ([1]; 298.15 K) is reported as 17650 ± 2800 mPa·s and the mass density ([1]; 298.15 K) is reported as 1133.5 ± 2.8 kg/m3. For the same compound, the viscosity ([1]; 303.15 K) was 11449 ± 1700 mPa·s, the mass density ([1]; 303.15 K) was 1129.9 ± 2.8 kg/m3 and the viscosity ([1]; 308.15 K) was 7159 ± 960 mPa·s. It also gave a mass density ([1]; 308.15 K) of 1126.3 ± 2.8 kg/m3, a viscosity ([1]; 313.15 K) of 4606 ± 570 mPa·s and a mass density ([1]; 313.15 K) of 1123.2 ± 2.8 kg/m3. For the same compound, the viscosity ([1]; 318.15 K) was 3028 ± 340 mPa·s, the mass density ([1]; 318.15 K) was 1119.8 ± 2.7 kg/m3 and the viscosity ([1]; 323.15 K) was 1977 ± 200 mPa·s. It also gave a mass density ([1]; 323.15 K) of 1116.2 ± 2.7 kg/m3, a viscosity ([1]; 328.15 K) of 1431 ± 130 mPa·s and a mass density ([1]; 328.15 K) of 1112.7 ± 2.7 kg/m3. For the same compound, the viscosity ([1]; 333.15 K) was 944 ± 76 mPa·s, the mass density ([1]; 333.15 K) was 1109.5 ± 2.7 kg/m3 and the viscosity ([1]; 338.15 K) was 623 ± 44 mPa·s. The mass density ([1]; 338.15 K) was 1105.9 ± 2.7 kg/m3, the viscosity ([1]; 343.15 K) was 431 ± 26 mPa·s and the mass density ([1]; 343.15 K) was 1102.6 ± 2.6 kg/m3. For the same compound, the viscosity ([1]; 348.15 K) was 294 ± 15 mPa·s, the mass density ([1]; 348.15 K) was 1099.3 ± 2.6 kg/m3 and the viscosity ([1]; 353.15 K) was 198 ± 8 mPa·s. It also gave a mass density ([1]; 353.15 K) of 1095.8 ± 2.6 kg/m3, a refractive index ([2]; 298.15 K) of 1.51306 ± 0.00071 and a refractive index ([2]; 303.15 K) of 1.51163 ± 0.00071. For the same compound, the refractive index ([2]; 308.15 K) was 1.50998 ± 0.00071, the refractive index ([2]; 313.15 K) was 1.50871 ± 0.00071 and the refractive index ([2]; 318.15 K) was 1.50706 ± 0.00071. It also gave a refractive index ([2]; 323.15 K) of 1.50582 ± 0.00071, a refractive index ([2]; 328.15 K) of 1.5045 ± 0.00071 and a refractive index ([2]; 333.15 K) of 1.50322 ± 0.00071.

In the case of CCCCCCCCCCCCOS(=O)(=O)[O-].CCCCCCCCCCn1cc[n+](CCC#N)c1 [3-(2-cyanoethyl)-1-decylimidazolium dodecylsulfate], the mass density ([1]; 293.15 K) is reported as 1053 ± 2.2 kg/m3, the mass density ([1]; 298.15 K) is reported as 1050.4 ± 2.2 kg/m3 and the viscosity ([1]; 303.15 K) is reported as 16145 ± 2500 mPa·s. For the same compound, the mass density ([1]; 303.15 K) was 1046.9 ± 2.1 kg/m3, the viscosity ([1]; 308.15 K) was 10417 ± 1500 mPa·s and the mass density ([1]; 308.15 K) was 1043.3 ± 2.1 kg/m3. It also gave a viscosity ([1]; 313.15 K) of 6231 ± 820 mPa·s, a mass density ([1]; 313.15 K) of 1041.8 ± 2.1 kg/m3 and a viscosity ([1]; 318.15 K) of 3951 ± 470 mPa·s. It also gave a mass density ([1]; 318.15 K) of 1038.6 ± 2.1 kg/m3, a viscosity ([1]; 323.15 K) of 2583 ± 280 mPa·s and a mass density ([1]; 323.15 K) of 1036.1 ± 2.1 kg/m3. For the same compound, the viscosity ([1]; 328.15 K) was 1757 ± 170 mPa·s, the mass density ([1]; 328.15 K) was 1034.3 ± 2.1 kg/m3 and the viscosity ([1]; 333.15 K) was 1252 ± 110 mPa·s. For the same compound, the mass density ([1]; 333.15 K) was 1032.5 ± 2.1 kg/m3, the viscosity ([1]; 338.15 K) was 904 ± 72 mPa·s and the mass density ([1]; 338.15 K) was 1029.9 ± 2.1 kg/m3. It also gave a viscosity ([1]; 343.15 K) of 588 ± 40 mPa·s, a mass density ([1]; 343.15 K) of 1027.3 ± 2.1 kg/m3 and a viscosity ([1]; 348.15 K) of 418 ± 25 mPa·s. For the same compound, the mass density ([1]; 348.15 K) was 1025.8 ± 2.1 kg/m3, the viscosity ([1]; 353.15 K) was 296 ± 15 mPa·s and the mass density ([1]; 353.15 K) was 1023.9 ± 2.1 kg/m3. For the same compound, the refractive index ([2]; 298.15 K) was 1.47447 ± 0.00068, the refractive index ([2]; 303.15 K) was 1.47296 ± 0.00068 and the refractive index ([2]; 308.15 K) was 1.47142 ± 0.00068. The refractive index ([2]; 313.15 K) was 1.46972 ± 0.00068, the refractive index ([2]; 318.15 K) was 1.46813 ± 0.00068 and the refractive index ([2]; 323.15 K) was 1.46678 ± 0.00068. For the same compound, the refractive index ([2]; 328.15 K) was 1.46532 ± 0.00068 and the refractive index ([2]; 333.15 K) was 1.46391 ± 0.00068.
